According to patent US20120202794A1 (priority 2011, published 2012):

Tests used:
HCV Replicon 1b = experiment: HCV inhibition assay, HCV replicon 1b (Clone A or ET-lunet cells; RT-PCR or luciferase reporter); format: cell-based; conditions: Hepatitis C virus, 96 h, HCV replicon 1b; 4 days incubation; read-out: Replicon 1b potency EC90
In short: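 Clone A (1500/well) or ET-lunet (3000/well) replicon cells treated with serially diluted compounds (0.5% DMSO, no G418) for 4 days at 37 °C. HCV RNA measured by one-step RT-PCR normalized to rRNA (ΔΔCt) or by luciferase luminescence versus DMSO controls; EC50/EC90 by curve fitting.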

[1] = test system: Huh7, HepG2, BxPC3, or CEM cells; experiment: Cell cytotoxicity assay (MTS), CC90 as reported in Table 1, cell line not stated; format: cell-based; conditions: MTS assay; 8 days incubation; cell line not given
In short: (§1)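 Compounds, serially diluted from 100 μM, were incubated 8 days at 37° C with Huh7, HepG2 or BxPC3 (2×10^3 cells/well) or CEM (5×10^3 cells/well). Viability was read by MTS, 2 h, absorbance 490 nm. CC90 (90% inhibition) was taken against untreated cells.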

[2] = as above; format: cell-based; conditions: human; MTS assay; 8 days incubation; cell line not given
In short: as §1

[3] = test system: genotype (GT) 1a H77 replicon; experiment: Replicon assay, H77 GT 1a replicon in Huh7-Lunet cells (RT-PCR); format: cell-based, HCV; conditions: Hepatitis C virus, GT1A, Huh-7, 96 h, 4 days incubation, read-out: RT-PCR H77 1a Potency EC90
Method: Cell Line and Maintenance: The genotype (GT) 1a H77 replicon (Apath LLC Brooklyn, N.Y.) was stably expressed in Huh7-Lunet cells (kindly provided by R. Bartenschlager University of Heidelberg, Heidelberg, Germany) and maintained in Dulbecco's modified Eagle's medium supplemented with 10% fetal bovine serum, 0.1 mM non essential amino acids (NEAA), 4 mM L-glutamine, 1 mM sodium pyruvate and 0.750 mg/mL G418 (Geneticin) (Invitrogen, Carlsbad, Calif.).
Replicon Assay: Inhibition of HCV in the H77 GT 1a replicon (Apath LLC, Brooklyn, N.Y.) was measured by Real-Time PCR (RT-PCR) Replicon cells were added to the plate at 1500 cells/well in 50 μL of medium and 50 μL of 2× drug dilutions were added (in duplicate) per well in a 96 well plate to total 100 μL per well. The plate was incubated at 37° C. in a humidified 8% CO2 atmosphere for 4 days. After incubation, the supernatant was discarded and total RNA was extracted with RNeasy 96 (Qiagen, Valencia Calif.) per manufacturer's instructions. The extracted RNA was amplified as described by Stuyver et al., J. Virol. (2003) 77: 10689-10694, and the ΔCt values for HCV were determined and the EC90 was calculated using GraphPad Prism software (San Diego, Calif.). A “no drug” (medium only) control was used to determine maximum amount of HCV RNA.

| SMILES | EC90 (HCV Replicon 1b) | CC90 [1] | CC90 at 8 days [2] | EC90 [3] |
| --- | --- | --- | --- | --- |
| CC(C)C[C@H]1CN(C(=O)c2cc(-c3ccc([N+](=O)[O-])cc3)on2)[C@@H](CC(C)C)C(=O)N1 [Compound 273, (3S,6S)-3,6-diisobutyl-4-(5-(4-nitrophenyl)isoxazole-3-carbonyl)piperazin-2-one] | 3.76 µM | > 10 µM | – | – |
| CC(C)C[C@H]1C(=O)N[C@@H](c2ccccc2)CN1C(=O)c1noc(-c2ccc(F)cc2)n1 [Compound 292, (3S,6S)-4-(5-(4-Fluorophenyl)-1,2,4-oxadiazole-3-carbonyl)-3-isobutyl-6-phenylpiperazin-2-one] | 0.078 µM | – | > 10 µM | 0.079 µM |
| CC(C)C[C@H]1C(=O)N[C@@H](c2ccccc2F)CN1C(=O)c1cc(-c2ccc(F)cc2)on1 [Compound 355, (3S,6S)-6-(2-fluorophenyl)-4-(5-(4-fluorophenyl)isoxazole-3-carbonyl)-3-isobutyl-piperazin-2-one] | 0.093 µM | – | > 10 µM | 0.16 µM |
| CC(C)C[C@H]1C(=O)N[C@@H](c2ccccc2F)CN1C(=O)c1noc(-c2ccc(F)cc2)n1 [Compound 370, (3S,6S)-6-(2-fluorophenyl)-4-(5-(4-fluorophenyl)-1,2,4-oxadiazole-3-carbonyl)-3-isobutylpiperazin-2-one] | 0.061 µM | – | > 10 µM | 0.099 µM |
| CC(C)C[C@H]1C(=O)N[C@@H](c2ccccc2F)CN1C(=O)[C@@H]1C[C@H]1c1ccc(F)cc1 [Compound 373, (3S,6S)-6-(2-fluorophenyl)-4-((1R,2R)-2-(4-fluorophenyl)cyclopropanecarbonyl)-3-isobutylpiperazin-2-one] | 0.057 µM | – | > 10 µM | 0.087 µM |
| C/C=C/[C@H]1CN(C(=O)c2cc(-c3ccc(F)cc3)on2)[C@@H](CC(C)C)C(=O)N1 [Compound 424, (3S,6S)-4-(5-(4-fluorophenyl)isoxazole-3-carbonyl)-3-isobutyl-6-((E)-prop-1-en-1-yl)piperazin-2-one] | 0.064 µM | – | > 10 µM | 0.082 µM |
| CC(C)C[C@H]1C(=O)N[C@@H](c2cccs2)CN1C(=O)c1cc(-c2ccc(F)cc2)on1 [Compound 426, (3S,6R)-4-(5-(4-fluorophenyl)isoxazole-3-carbonyl)-3-isobutyl-6-(thiophen-2-yl)piperazin-2-one] | 0.018 µM | – | > 10 µM | 0.048 µM |
| CC(C)C[C@H]1C(=O)N[C@@H](c2cccs2)CN1C(=O)c1noc(-c2ccc(F)cc2)n1 [Compound 430, (3S,6R)-4-(5-(4-fluorophenyl)-1,2,4-oxadiazole-3-carbonyl)-3-isobutyl-6-(thiophen-2-yl)piperazin-2-one] | 0.0026 µM | – | > 10 µM | 0.018 µM |
| CC(C)C[C@H]1C(=O)N[C@@H](c2cccs2)CN1C(=O)c1cc(-c2ccc(F)cc2)no1 [Compound 432, (3S,6R)-4-(3-(4-fluorophenyl)isoxazole-5-carbonyl)-3-isobutyl-6-(thiophen-2-yl)piperazin-2-one] | 0.02 µM | – | > 10 µM | 0.022 µM |
| CC(C)C[C@H]1C(=O)N[C@@H](c2cccs2)CN1C(=O)[C@@H]1C[C@H]1c1ccc(F)cc1 [Compound 433, (3S,6R)-4-((1R,2R)-2-(4-fluorophenyl)cyclopropanecarbonyl)-3-isobutyl-6-(thiophen-2-yl)piperazin-2-one] | 0.018 µM | – | > 10 µM | 0.03 µM |
| CC(C)C[C@H]1C(=O)N[C@@H](c2ccsc2)CN1C(=O)c1cc(-c2ccc(F)cc2)on1 [Compound 436, (3S,6S)-4-(5-(4-fluorophenyl)isoxazole-3-carbonyl)-3-isobutyl-6-(thiophen-3-yl)piperazin-2-one] | 0.018 µM | – | > 10 µM | 0.038 µM |
| CC(C)C[C@H]1C(=O)N[C@@H](c2ccsc2)CN1C(=O)[C@@H]1C[C@H]1c1ccc(F)cc1 [Compound 445, (3S,6S)-4-((1R,2R)-2-(4-fluorophenyl)cyclopropanecarbonyl)-3-isobutyl-6-(thiophen-3-yl)piperazin-2-one] | 0.027 µM | – | > 10 µM | 0.02 µM |
| CC(C)C[C@H]1C(=O)N[C@@H](c2ccsc2)CN1C(=O)c1noc(-c2ccc(F)cc2)n1 [Compound 446, (3S,6S)-4-(5-(4-fluorophenyl)-1,2,4-oxadiazole-3-carbonyl)-3-isobutyl-6-(thiophen-3-yl)piperazin-2-one] | 0.014 µM | – | > 10 µM | 0.028 µM |
| CC(C)C[C@H]1C(=O)N[C@@H](c2ccsc2Cl)CN1C(=O)c1cc(-c2ccc(F)cc2)on1 [Compound 496, (3S,6S)-6-(2-chlorothiophen-3-yl)-4-(5-(4-fluorophenyl)isoxazole-3-carbonyl)-3-isobutylpiperazin-2-one] | 0.011 µM | – | > 10 µM | 0.065 µM |
| CC(C)C[C@H]1C(=O)N[C@@H](c2ccsc2Cl)CN1C(=O)c1noc(-c2ccc(F)cc2)n1 [Compound 499, (3S,6S)-6-(2-chlorothiophen-3-yl)-4-(5-(4-fluorophenyl)-1,2,4-oxadiazole-3-carbonyl)-3-isobutylpiperazin-2-one] | 0.023 µM | – | > 10 µM | 0.083 µM |
| CC(C)C[C@H]1C(=O)N[C@@H](c2cnco2)CN1C(=O)c1cc(-c2ccc(F)cc2)no1 [Compound 519, (3S,6R)-4-(3-(4-fluorophenyl)isoxazole-5-carbonyl)-3-isobutyl-6-(oxazol-5-yl)piperazin-2-one] | 0.11 µM | – | > 10 µM | – |
| CC(C)C[C@H]1C(=O)N[C@@H](c2cnco2)CN1C(=O)/C=C/c1ccc(F)cc1F [Compound 520, (3S,6R)-4-((E)-3-(2,4-difluorophenyl)acryloyl)-3-isobutyl-6-(oxazol-5-yl)piperazin-2-one] | 0.47 µM | – | > 10 µM | – |
| CC(C)C[C@H]1C(=O)N[C@@H](c2cnco2)CN1C(=O)[C@@H]1C[C@H]1c1ccc(F)cc1 [Compound 521, (3S,6R)-4-((1R,2R)-2-(4-fluorophenyl)cyclopropanecarbonyl)-3-isobutyl-6-(oxazol-5-yl)piperazin-2-one] | 0.022 µM | – | > 10 µM | 0.004 µM |
| CC(C)C[C@H]1C(=O)N[C@@H](c2cnco2)CN1C(=O)c1cc(-c2ccc(F)cc2F)on1 [Compound 522, (3S,6R)-4-(5-(2,4-difluorophenyl)isoxazole-3-carbonyl)-3-isobutyl-6-(oxazol-5-yl)piperazin-2-one] | 0.27 µM | – | > 10 µM | – |
| CC(C)C[C@H]1C(=O)N[C@@H](c2ccc[nH]2)CN1C(=O)c1cc(-c2ccc(F)cc2)on1 [Compound 523, (3S,6R)-4-(5-(4-fluorophenyl)isoxazole-3-carbonyl)-3-isobutyl-6-(1H-pyrrol-2-yl)piperazin-2-one] | 1.06 µM | – | > 10 µM | – |
| CC(C)C[C@H]1C(=O)N[C@H](c2ccc[nH]2)CN1C(=O)c1cc(-c2ccc(F)cc2)on1 [Compound 524, (3S,6S)-4-(5-(4-fluorophenyl)isoxazole-3-carbonyl)-3-isobutyl-6-(1H-pyrrol-2-yl)piperazin-2-one] | > 10 µM | – | > 10 µM | – |
| CC(C)C[C@H]1C(=O)N[C@@H](c2ccccc2)N1C(=O)c1cc(-c2ccc(F)cc2)on1 [Compound 528, (2R,5S)-1-(5-(4-fluorophenyl)isoxazole-3-carbonyl)-5-isobutyl-2-phenylimidazolidin-4-one] | > 10 µM | – | > 10 µM | – |
| CC(C)C[C@H]1C(=O)N[C@H](c2ccccc2)N1C(=O)c1cc(-c2ccc(F)cc2)on1 [Compound 529, (2S,5S)-1-(5-(4-fluorophenyl)isoxazole-3-carbonyl)-5-isobutyl-2-phenylimidazolidin-4-one] | > 10 µM | – | > 10 µM | – |
| CC(C)C[C@H]1C(=O)N[C@@H](c2ccccc2)N1C(=O)[C@H]1C[C@@H]1c1ccccc1 [Compound 530, (2R,5S)-5-isobutyl-2-phenyl-1-((1S,2S)-2-phenylcyclopropanecarbonyl)imidazolidin-4-one] | > 10 µM | – | > 10 µM | – |
| CC(C)C[C@H]1C(=O)N[C@@H](c2ccccc2)N1C(=O)[C@H]1C[C@@H]1c1ccc(F)cc1 [Compound 532, (2R,5S)-1-((1S,2S)-2-(4-fluorophenyl)cyclopropanecarbonyl)-5-isobutyl-2-phenyl-imidazolidin-4-one] | > 10 µM | – | > 10 µM | – |
